# Test results reported in patent publication US20260356841A1, “HETEROCYCLIC PYRIDINONE COMPOUNDS AS TRIGGERING RECEPTOR EXPRESSED ON MYELOID CELLS 2 AGONISTS AND METHODS OF USE” (Vigil Neuroscience, Inc., priority 2023, published 2026).
# Biological target: T1, human TREM2 (Homo sapiens, UniProt Q9NZC2)
# T1 construct: expressed in transfected cells; host or cells: HEK293T (HEK293T-hTREM2 cells)
# Assay: TREM2 agonist potency by cellular phosphorylation of Spleen Tyrosine Kinase (Syk), AlphaLisa, HEK293T-hTREM2 cells
# Format: cell-based
# Conditions: hTREM2 EC50 Data (HEK293 Cells); Syk phosphorylation, AlphaLisa; read-out: hTREM2 EC50
# Outline: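 HEK293T cells co-expressing human TREM2 and DAP12, plated 20–24 h before use. Compounds applied 45 min at room temperature in assay buffer, then cells lysed and phospho-Syk quantified by AlphaLisa. Percent activation from a standard curve; EC50 from a four-parameter variable-slope fit.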
# T1 sequence (Q9NZC2 19-230): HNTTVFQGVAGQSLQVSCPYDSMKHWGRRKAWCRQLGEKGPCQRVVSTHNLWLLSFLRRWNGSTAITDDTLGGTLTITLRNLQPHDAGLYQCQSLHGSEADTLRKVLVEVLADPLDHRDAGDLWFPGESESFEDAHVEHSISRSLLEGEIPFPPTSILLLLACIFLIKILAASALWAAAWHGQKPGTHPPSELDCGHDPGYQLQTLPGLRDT
# T1 sequence (O43914 22-113 partner): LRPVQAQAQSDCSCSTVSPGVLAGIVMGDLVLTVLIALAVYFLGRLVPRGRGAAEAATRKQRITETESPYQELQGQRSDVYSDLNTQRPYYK
row,SMILES,EC50 [nM]
1,"CNn1cc([C@H]2C[C@@H](c3nc(C45CC(C(F)(F)F)(C4)C5)c4cc(C(F)(F)F)c(C)nc4n3)CCO2)ccc1=O [Example 338, 1-(methylamino)-5-((2R,4S)-4-(7-methyl-6-(trifluoromethyl)-4-(3-(trifluoromethyl)bicyclo-[1.1.1]pentan-1-yl)pyrido[2,3-d]pyrimidin-2-yl)tetrahydro-2H-pyran-2-yl)pyridin-2 (1H)-one]",< 100
2,Cc1nc2nc([C@@H]3CCO[C@@H](c4ccc(=O)n(C)c4)C3)nc(-c3cc(F)c(C(F)(F)F)cc3F)c2nc1C [Example 348],> 500
3,Cc1nc2nc([C@@H]3CCO[C@H](c4ccc(=O)n(C)c4)C3)nc(-c3cc(F)c(C(F)(F)F)cc3F)c2nc1C [Example 349],> 500
4,Cc1nc2nc([C@H]3CCO[C@@H](c4ccc(=O)n(C)c4)C3)nc(-c3cc(F)c(C(F)(F)F)cc3F)c2nc1C [Example 350],< 100
5,Cc1noc(-c2cc3c(C45CC(C(F)(F)F)(C4)C5)nc([C@H]4CCO[C@@H](c5ccc(=O)n(C(F)F)c5)C4)nc3nc2C)n1 [Example 352],> 500
6,[2H]C([2H])([2H])c1nc2nc(C3CCOC(c4ccc(=O)n(C([2H])([2H])[2H])c4)C3)nc(C34CC(C(F)(F)F)(C3)C4)c2nc1C([2H])([2H])[2H] (centres unmarked) [Example 353],< 100
7,[2H]C([2H])([2H])n1cc([C@H]2CN(c3nc(C45CC(C(F)(F)F)(C4)C5)c4nc(C)c(C)nc4n3)C[C@@H](C)O2)ccc1=O [Example 354],< 100
8,Cc1nc2nc([C@H]3CCO[C@@H](c4ccc(=O)[nH]c4)C3)nc(C34CC(C(F)(F)F)(C3)C4)c2nc1C(F)(F)F [Example 355],< 100
